Measured values as given in paper PMC8175851, “Effects of Genetic Polymorphism in CYP2D6, CYP2C19, and the Organic Cation Transporter OCT1 on Amitriptyline Pharmacokinetics in Healthy Volunteers and Depressive Disorder Patients” (Frontiers in Pharmacology, 2021).
Values joined by “and” are separate entries in the source; they are usually repeats but may differ in a detail not shown here. Equal entries are not always repeated. Where two headings read alike, the source gives them in different places.

Assay: Pharmacokinetics of AT and NT in healthy volunteers after a single dose of 25 mg amitriptyline
Format: in vivo, human
Conditions: for AUC(0-inf) / AUC(0-t) / Cmax / Tmax / half-life: both sexes, human, plasma, po, 25 mg, single oral 25 mg AT; for AUC(0-t): read-out: AUC48h; for Cmax: read-out: Cmax
Description: In order to enrich the study sample with the less frequent functionally deficient OCT1 variants, participants were selected based on OCT1 genotype from an internal database at the Institute of Clinical Pharmacology of the University Medical Center Göttingen. All volunteers who are listed in the internal database had agreed to it and the database was approved by the ethics committee of the University of Göttingen. […] Additional subjects with heterozygous genotypes were included to provide a better understanding of the effects of specific variants and the mode of inheritance. All volunteers gave their written informed consent before participation in the study. The study was approved by the ethics committee of the University of Göttingen and the German Federal Institute for Drugs and Medical Devices (BfArM). It was registered at the clinical trials databases Clinicaltrials.gov (NCT02054299) and EudraCT (number 2012-003546-33). […] Volunteers who underwent regular drug treatments other than oral contraceptives or who suffered from any relevant chronic illness, as well as pregnant or lactating women, were not included. All subjects were healthy according to a detailed medical history, medical examination, electrocardiogram, urine status and clinical chemistry, and haematology parameters (sodium, potassium, total bilirubin, aspartate aminotransferase, alanine-aminotransferase, creatinine, C-reactive protein, thyroid-stimulating hormone, haemoglobin, erythrocyte, thrombocyte, and leucocyte counts). […] After centrifugation (13,000 rpm, 15 min, room temperature), two-thirds of the supernatant were transferred to a new reaction tube and evaporated at 40°C under nitrogen flow. The residue was reconstituted under shaking in 0.1% methanoic acid and briefly centrifuged before quantification using a Nexera UHPLC system (Shimadzu, Kyoto, Japan) coupled to an API 4000 tandem mass spectrometer (AB Sciex, Darmstadt, Germany). […] PerkinElmer, Rodgau, Germany) with a Phenomenex C18 pre-column (4 × 2 mm, Phenomenex, Aschaffenburg, Germany). […] The lower limit of quantification was 0.5 ng/ml for AT and 0.1 ng/ml for NT. […] The mass spectrometry detection parameters are listed in Supplementary Table S1. For the study in healthy volunteers, the primary endpoints were the AUCs of plasma AT and NT concentrations. Secondary endpoints were the other pharmacokinetic parameters of AT and NT, as well as heart rate, blood pressure, pupil size effects, and possible adverse events (headache, fatigue, visual or hearing impairments, restlessness, nausea, dizziness, dry mouth, tremor, as well as sensations of hypothermia and heart palpitations determined using a visual analogue scale test). Pharmacokinetic parameters were calculated by non-compartmental analysis using Phoenix 64 WinNonlin version 6.3 (Certara Inc., Princeton, NJ, United States). AUCinf of AT was calculated from the time of dosing using the linear/log trapezoidal rule and extrapolated to infinity based on the last predicted concentration and using the terminal elimination rate constant (lambda z). AUC of NT was calculated from the time of dosing until the last measurement at 48 h using the linear/log trapezoidal rule, as a decline in NT concentrations was not observed in some subjects and extrapolation to infinity thus not possible.

[1] = healthy volunteers, 0 active OCT1 alleles (n = 12)
[2] = healthy volunteers, 1 active OCT1 allele (n = 9)
[3] = healthy volunteers, 2 active OCT1 alleles (n = 14)
[4] = healthy volunteers, CYP2C19 activity score 1 (n = 5), mean
[5] = healthy volunteers, CYP2C19 activity score 1.5 (n = 2), mean
[6] = healthy volunteers, CYP2C19 activity score 2 (n = 16), mean
[7] = healthy volunteers, CYP2C19 activity score 2.5 (n = 10), mean
[8] = healthy volunteers, CYP2D6 activity 0 (n = 3), mean
[9] = healthy volunteers, CYP2D6 activity 0.5 (n = 2), mean
[10] = healthy volunteers, CYP2D6 activity 1 (n = 10), mean
[11] = healthy volunteers, CYP2D6 activity 1.5 (n = 6), mean
[12] = healthy volunteers, CYP2D6 activity 2 (n = 11), mean
[13] = healthy volunteers, CYP2D6 activity 2.5 (n = 1), mean
[14] = healthy volunteers, CYP2D6 activity 3 (n = 2), mean

Question: What does the source list for CN(C)CCC=C1c2ccccc2CCc2ccccc21 [Amitriptyline, amitriptyline]?
Answer: maximum concentration of unbound AT in the portal vein (estimated) (based on the calculations by Ahlin et al. and Ito et al., listed as AT): 745.9 µg/L and 2.69 µM; AUC(0-inf) (35 healthy volunteers, read-out: AUCinf (range over all volunteers)): 110 to 430 ng·h/mL; AUC(0-t) [1]: 162 ± 40.5 ng·h/mL; AUC(0-inf) (healthy volunteers, 0 active OCT1 alleles (n = 12), read-out: AUCinf): 199 ± 60 ng·h/mL; Cmax [1]: 9.9 ± 3.9 ng/mL; AUC(0-t) [2]: 184 ± 56 ng·h/mL; AUC(0-inf) (healthy volunteers, 1 active OCT1 allele (n = 9), read-out: AUCinf): 228 ± 72.4 ng·h/mL; Cmax [2]: 10.5 ± 3.3 ng/mL; AUC(0-t) [3]: 194 ± 66.3 ng·h/mL; AUC(0-inf) (healthy volunteers, 2 active OCT1 alleles (n = 14), read-out: AUCinf): 243 ± 87.5 ng·h/mL; Cmax [3]: 11.6 ± 4 ng/mL; AUC(0-t) [4]: 183 ng·h/mL; AUC(0-inf) (healthy volunteers, CYP2C19 activity score 1 (n = 5), mean, read-out: AUCinf): 231 ng·h/mL; Cmax [4]: 11.1 ng/mL; AUC(0-t) [5]: 256 ng·h/mL; AUC(0-inf) (healthy volunteers, CYP2C19 activity score 1.5 (n = 2), mean, read-out: AUCinf): 317 ng·h/mL; Cmax [5]: 16.2 ng/mL; AUC(0-t) [6]: 172 ng·h/mL; AUC(0-inf) (healthy volunteers, CYP2C19 activity score 2 (n = 16), mean, read-out: AUCinf): 210 ng·h/mL; Cmax [6]: 10.5 ng/mL; AUC(0-t) [7]: 171 ng·h/mL; AUC(0-inf) (healthy volunteers, CYP2C19 activity score 2.5 (n = 10), mean, read-out: AUCinf): 211 ng·h/mL; Cmax [7]: 9.5 ng/mL; AUC(0-t) [8]: 236 ng·h/mL; AUC(0-inf) (healthy volunteers, CYP2D6 activity 0 (n = 3), mean, read-out: AUCinf): 311 ng·h/mL; Cmax [8]: 10.9 ng/mL; AUC(0-t) [9]: 166 ng·h/mL; AUC(0-inf) (healthy volunteers, CYP2D6 activity 0.5 (n = 2), mean, read-out: AUCinf): 214 ng·h/mL; Cmax [9]: 12.7 ng/mL; AUC(0-t) [10]: 199 ng·h/mL; AUC(0-inf) (healthy volunteers, CYP2D6 activity 1 (n = 10), mean, read-out: AUCinf): 251 ng·h/mL; Cmax [10]: 11.9 ng/mL; AUC(0-t) [11]: 184 ng·h/mL; AUC(0-inf) (healthy volunteers, CYP2D6 activity 1.5 (n = 6), mean, read-out: AUCinf): 226 ng·h/mL; Cmax [11]: 10.3 ng/mL; AUC(0-t) [12]: 162 ng·h/mL; AUC(0-inf) (healthy volunteers, CYP2D6 activity 2 (n = 11), mean, read-out: AUCinf): 196 ng·h/mL; Cmax [12]: 10 ng/mL; AUC(0-t) [13]: 142 ng·h/mL; AUC(0-inf) (healthy volunteers, CYP2D6 activity 2.5 (n = 1), mean, read-out: AUCinf): 158 ng·h/mL; Cmax [13]: 7 ng/mL; AUC(0-t) [14]: 130 ng·h/mL; AUC(0-inf) (healthy volunteers, CYP2D6 activity 3 (n = 2), mean, read-out: AUCinf): 157 ng·h/mL; Cmax [14]: 10.2 ng/mL; Tmax [1]: 3.4 ± 1.6 h; half-life [1]: 1220 ± 228 min; Tmax [2]: 3.1 ± 1 h; half-life [2]: 1230 ± 234 min; Tmax [3]: 2.9 ± 1.4 h; half-life [3]: 1260 ± 240 min; Tmax [4]: 2.6 h; half-life [4]: 1300 min; Tmax [5]: 2 h; half-life [5]: 1220 min; Tmax [6]: 3.2 h; half-life [6]: 1210 min; Tmax [7]: 3.6 h; half-life [7]: 1190 min; Tmax [8]: 3.4 h; half-life [8]: 1420 min; Tmax [9]: 2 h; half-life [9]: 1450 min; Tmax [10]: 2.7 h; half-life [10]: 1280 min; Tmax [11]: 3.7 h
